Literature values as cited in PMC5589077 (ACS chemical neuroscience, 2015).
No end group written: not given here.

Tests used:
rats [1] = details: cited from earlier work
rats [2] = details: rat, in vivo; cited from earlier work
α4β2-nAChR = details: read-out: Ki at α4β2-nAChR; cited from earlier work
α6/α3β2β3-nAChR [3] = details: read-out: Ki at α6/α3β2β3-nAChR; cited from earlier work
α6/α3β2β3-nAChR [4] = details: calcium-flux, cited from earlier work
[5] = test system: nonhuman primates with established LID; details: without reducing antiparkinsonian benefits; cited from earlier work
rats [6] = details: cited from earlier work; remark: listed apart in the source

Cc1ccc[n+](CCCCCCCCCC[n+]2cccc(C)c2)c1 [compound 9, N,N′-decane-diyl-bis-3-picolinium]
effect on nicotine SA (rats [1]): reduce nicotine SA

α-Ctx MII (GCCSNPVCHLEHSNLC; ends and bridges not checked; cysteine pairing not given here; UniProt P56636 49-64, looked up)
effect on established nicotine self-administration (rats [2]): attenuated established nicotine self-administration

O=C(C1CC1)N1CC2CC(C1)N2 [compound 8, 3-cyclopropylcarbonyl-3,6-dazabicyclo[3.1.1]heptane]
Ki (α4β2-nAChR): 3 nM | Ki (α6/α3β2β3-nAChR [3]): 21 nM | Emax at α6/α3β2β3-nAChR (α6/α3β2β3-nAChR [4]): 100% | EC50 (α6/α3β2β3-nAChR [4]; read-out: EC50 at α6/α3β2β3-nAChR): 80 nM | effect on L-dopa induced dyskinesia (LID) [5]: ameliorated | effect on abnormal involuntary movements (AIMs) (rats [6]): reduced abnormal involuntary movements
